{
  "source": "patent US20240027453A1",
  "about": "“METHOD FOR DETECTION AND QUANTITATIVE MONITORING OF INFECTIONS WITH HERPESVIRUSES” (The Trustees of Princeton University, priority 2020, published 2024)",
  "system": "HCMV",
  "format": "cell-based",
  "conditions": "for UL47 (P16784) protein, numerical value of heatmap FIG. 6C / UL69 (P16749) protein, numerical value of heatmap FIG. 6C / UL70 (P17149) protein, numerical value of heatmap FIG. 6C / UL83 (P06725) protein, numerical value of heatmap FIG. 6C / UL132 (P69338) protein, numerical value of heatmap FIG. 6C / US15 (P09718) protein, numerical value of heatmap FIG. 6C / sp|P16810|IR12_HCMVA (P16810) protein, numerical value of heatmap FIG. 6C / DUT (P16824) protein, numerical value of heatmap FIG. 6C / TRM3 (P16732) protein, numerical value of heatmap FIG. 6C / TRX1 (P16783) protein, numerical value of heatmap FIG. 6C / TRX2 (P16728) protein, numerical value of heatmap FIG. 6C / UL24 (P16760) protein, numerical value of heatmap FIG. 6C / UL40 (P16780) protein, numerical value of heatmap FIG. 6C / UL49 (P16786) protein, numerical value of heatmap FIG. 6C / sp|P16808|IR10_HCMVA (P16808) protein, numerical value of heatmap FIG. 6C: LL",
  "description": "In example herpesvirus PRM assay methods shown herein, cell pellets were lysed in 2% SDS, 100 mM NaCl, 0.5 mM EDTA, 50 mM Tris, pH 8.2, and 50 μg of protein was reduced and alkylated with 25 mM TCEP and 50 mM CAM respectively for 20 min at 70° C. Proteins were then precipitated via methanol chloroform precipitation (Wessel & Flugg, Anal Biochem. 138(1):141-143, 1984), resuspended in 50 mM HEPES, pH 8.2 and digested overnight with trypsin (50:1 protein:enzyme w/w ratio). Digested peptides were desalted by SDB-RPS StageTip as previously described (Lum et al., Cell Syst., 7(6):[…], 2018; Greco et al., Methods Mol Biol 1410:39-63, 2016; Federspiel & Cristea, Methods Mol Biol., 1977:115-143, 2019).\nPeptides (1.0 μg on column) were analyzed by LC-MS/MS using a Dionex Ultimate 3000 UHPLC coupled online to an EASYSpray ion source and a Q Exactive HF. Peptides were separated on an EASYSpray C18 column (75 μm×25 cm) heated to 50° C. using a linear gradient of 5% B to 32% B over 60 min at a flow rate of 250 nL/min and were ionized at 1.7 kv. Mobile phase A consisted of 0.1% FA in H2O and mobile phase B consisted of 0.1% FA, 2.9% H2O in ACN.\nThe PRM method was controlled by a peptide inclusion list with retention time windows of 6 min for selected precursor ions.\nThe PRM assay was developed and analyzed using the open-source software Skyline (Maclean et al., Bioinformatics 26(7):966-968, 2010). Summed area under the curve of 3-4 transitions per peptide was used for quantitation. Targeted peptides were normalized to host protein loading control peptides. Peptide values for each sample were scaled to the average of each peptide across all runs. The average of multiple peptides was used as the inferred value for the protein measurement when more than one peptide was quantified (Federspiel et al., PLoS Biol. 17(9):e3000437. Doi: 10.1371/journal.pbio.3000437). PRM quantitation data were graphed using the Python Seaborn and Matplotlib libraries.\nMRC5 primary human fibroblasts (HFs) (ATCC CCL-171) were used as the model system for HSV-1 and HCMV infections and were cultured in complete growth medium (DMEM supplemented with 10% fetal bovine serum and 1% penicillin-streptomycin antibiotics) at 37° C. and 5% CO2. iSLK.219 cells harboring latent KSHV (a gift from Dr. Britt Glaunsinger, University of California, Berkeley) were grown in complete growth medium supplemented with 500 μg/ml hygromycin (ThermoFisher Scientific, 10687010) at 37° C. and 5% CO2. All cells were used for experiments within a maximum of 10 passages.\nWild type HSV-1 strain 17+ (a gift from Beate Sodeik, Hannover Medical School, Hannover, Germany) was propagated as previously described (Diner et al., 2015). Briefly, PO stocks were generated by electroporating pBAC-HSV-1 into U-2 OS cells. […] In a similar manner, wild type HCMV strain AD169 was produced from BAC electroporation into HFs and working stocks were propagated by infecting HFs at a low level. In both cases, cell-associated virus was released by sonication, combined with supernatant virus, then concentrated by ultracentrifugation (20,000 rpm, 2 hours, 4° C. with SW28 swinging bucket rotor [Beckman Coulter]) over a 10% ficoll (HSV-1) or 20% sorbitol (HCMV) cushion. Virus stock titers were determined by plaque assay for HSV-1 or tissue culture infectious dose (TCID50) for HCMV and infections were performed at a multiplicity of infection (MOI) of 3.\n12 hours prior to virus infection or reactivation, cells were treated with either the small molecule drug or DMSO/PBS control at an equivalent volume. […] For infection cycles lasting longer than 24 hours, small molecule drugs were re-added to the cell culture medium every 24 hours. Upon collection, cells were rinsed with PBS, scraped into a microcentrifuge tube, pelleted by centrifugation, and rinsed again with PBS.",
  "note": "Where two headings read alike, the source gives them in different places.",
  "data": [
    {"compound": "Nc1ccn(C[C@@H](CO)OCP(=O)(O)O)c(=O)n1", "note": "[CDV, cidofovir]", "values": [
      {"measurement": "UL47 (P16784) protein, numerical value of heatmap FIG. 6C", "setting": "timepoint 48", "result": 0.03052},
      {"measurement": "UL69 (P16749) protein, numerical value of heatmap FIG. 6C", "setting": "timepoint 48", "result": 0.2559},
      {"measurement": "UL70 (P17149) protein, numerical value of heatmap FIG. 6C", "setting": "timepoint 48", "result": 0.3143},
      {"measurement": "UL83 (P06725) protein, numerical value of heatmap FIG. 6C", "setting": "timepoint 48", "result": 0.03791},
      {"measurement": "UL132 (P69338) protein, numerical value of heatmap FIG. 6C", "setting": "timepoint 48", "result": 0.1131},
      {"measurement": "US15 (P09718) protein, numerical value of heatmap FIG. 6C", "setting": "timepoint 48", "result": 1.201},
      {"measurement": "sp|P16810|IR12_HCMVA (P16810) protein, numerical value of heatmap FIG. 6C", "setting": "timepoint 48", "result": 0.2103},
      {"measurement": "DUT (P16824) protein, numerical value of heatmap FIG. 6C", "setting": "timepoint 72", "result": 0.6275},
      {"measurement": "TRM3 (P16732) protein, numerical value of heatmap FIG. 6C", "setting": "timepoint 72", "result": 0.4913},
      {"measurement": "TRX1 (P16783) protein, numerical value of heatmap FIG. 6C", "setting": "timepoint 72", "result": 0.3363},
      {"measurement": "TRX2 (P16728) protein, numerical value of heatmap FIG. 6C", "setting": "timepoint 72", "result": 0.3619},
      {"measurement": "UL24 (P16760) protein, numerical value of heatmap FIG. 6C", "setting": "timepoint 72", "result": 0.3923},
      {"measurement": "UL40 (P16780) protein, numerical value of heatmap FIG. 6C", "setting": "timepoint 72", "result": 0.7811},
      {"measurement": "UL47 (P16784) protein, numerical value of heatmap FIG. 6C", "setting": "timepoint 72", "result": 0.4114},
      {"measurement": "UL49 (P16786) protein, numerical value of heatmap FIG. 6C", "setting": "timepoint 72", "result": 0.5948},
      {"measurement": "UL69 (P16749) protein, numerical value of heatmap FIG. 6C", "setting": "timepoint 72", "result": 0.6759},
      {"measurement": "UL70 (P17149) protein, numerical value of heatmap FIG. 6C", "setting": "timepoint 72", "result": 0.743},
      {"measurement": "UL83 (P06725) protein, numerical value of heatmap FIG. 6C", "setting": "timepoint 72", "result": 0.4276},
      {"measurement": "UL132 (P69338) protein, numerical value of heatmap FIG. 6C", "setting": "timepoint 72", "result": 0.4516},
      {"measurement": "US15 (P09718) protein, numerical value of heatmap FIG. 6C", "setting": "timepoint 72", "result": 0.8899},
      {"measurement": "sp|P16808|IR10_HCMVA (P16808) protein, numerical value of heatmap FIG. 6C", "setting": "timepoint 72", "result": 0.2743},
      {"measurement": "sp|P16810|IR12_HCMVA (P16810) protein, numerical value of heatmap FIG. 6C", "setting": "timepoint 72", "result": 0.6875},
      {"measurement": "DUT (P16824) protein, numerical value of heatmap FIG. 6C", "setting": "timepoint 96", "result": 0.7823},
      {"measurement": "TRM3 (P16732) protein, numerical value of heatmap FIG. 6C", "setting": "timepoint 96", "result": 0.7025},
      {"measurement": "TRX1 (P16783) protein, numerical value of heatmap FIG. 6C", "setting": "timepoint 96", "result": 0.8409},
      {"measurement": "TRX2 (P16728) protein, numerical value of heatmap FIG. 6C", "setting": "timepoint 96", "result": 0.8413},
      {"measurement": "UL24 (P16760) protein, numerical value of heatmap FIG. 6C", "setting": "timepoint 96", "result": 0.7085},
      {"measurement": "UL40 (P16780) protein, numerical value of heatmap FIG. 6C", "setting": "timepoint 96", "result": 0.7467},
      {"measurement": "UL47 (P16784) protein, numerical value of heatmap FIG. 6C", "setting": "timepoint 96", "result": 0.7604},
      {"measurement": "UL69 (P16749) protein, numerical value of heatmap FIG. 6C", "setting": "timepoint 96", "result": 0.9032},
      {"measurement": "UL70 (P17149) protein, numerical value of heatmap FIG. 6C", "setting": "timepoint 96", "result": 0.8327},
      {"measurement": "UL83 (P06725) protein, numerical value of heatmap FIG. 6C", "setting": "timepoint 96", "result": 1.027},
      {"measurement": "UL132 (P69338) protein, numerical value of heatmap FIG. 6C", "setting": "timepoint 96", "result": 0.6887},
      {"measurement": "US15 (P09718) protein, numerical value of heatmap FIG. 6C", "setting": "timepoint 96", "result": 0.6108},
      {"measurement": "sp|P16808|IR10_HCMVA (P16808) protein, numerical value of heatmap FIG. 6C", "setting": "timepoint 96", "result": 0.6859},
      {"measurement": "sp|P16810|IR12_HCMVA (P16810) protein, numerical value of heatmap FIG. 6C", "setting": "timepoint 96", "result": 0.5726},
      {"measurement": "DUT (P16824) protein, numerical value of heatmap FIG. 6C", "setting": "timepoint 120", "result": 1.034},
      {"measurement": "TRM3 (P16732) protein, numerical value of heatmap FIG. 6C", "setting": "timepoint 120", "result": 0.9855},
      {"measurement": "TRX1 (P16783) protein, numerical value of heatmap FIG. 6C", "setting": "timepoint 120", "result": 1.114},
      {"measurement": "TRX2 (P16728) protein, numerical value of heatmap FIG. 6C", "setting": "timepoint 120", "result": 1.493},
      {"measurement": "UL24 (P16760) protein, numerical value of heatmap FIG. 6C", "setting": "timepoint 120", "result": 1.171},
      {"measurement": "UL40 (P16780) protein, numerical value of heatmap FIG. 6C", "setting": "timepoint 120", "result": 0.9491},
      {"measurement": "UL47 (P16784) protein, numerical value of heatmap FIG. 6C", "setting": "timepoint 120", "result": 0.9878},
      {"measurement": "UL49 (P16786) protein, numerical value of heatmap FIG. 6C", "setting": "timepoint 120", "result": 0.6463},
      {"measurement": "UL69 (P16749) protein, numerical value of heatmap FIG. 6C", "setting": "timepoint 120", "result": 1.467},
      {"measurement": "UL70 (P17149) protein, numerical value of heatmap FIG. 6C", "setting": "timepoint 120", "result": 1.255},
      {"measurement": "UL83 (P06725) protein, numerical value of heatmap FIG. 6C", "setting": "timepoint 120", "result": 1.677},
      {"measurement": "UL132 (P69338) protein, numerical value of heatmap FIG. 6C", "setting": "timepoint 120", "result": 0.8677},
      {"measurement": "US15 (P09718) protein, numerical value of heatmap FIG. 6C", "setting": "timepoint 120", "result": 0.4974},
      {"measurement": "sp|P16808|IR10_HCMVA (P16808) protein, numerical value of heatmap FIG. 6C", "setting": "timepoint 120", "result": 0.9054},
      {"measurement": "sp|P16810|IR12_HCMVA (P16810) protein, numerical value of heatmap FIG. 6C", "setting": "timepoint 120", "result": 0.762},
      {"measurement": "levels of HCMV IE and E proteins", "setting": "early time points", "result": "decreased levels"}
    ]}
  ]
}
